From patent publication US8883964B2, “Compositions comprising modified collagen and uses therefor” (The Johns Hopkins University, priority 2004, dated 2014)

Key:
[1] = molecular target: T1, collagen films (type I, bovine) (Bos taurus, UniProt P02453+P02465); experiment: CMP-collagen film affinity study (fluorescence intensity of treated films); assay type: binding; settings: for affinity toward collagen film (fluorescence intensity): solution pre-equilibrated at 25° C. or 80° C., both conditions, 3 h at room temperature
T1 construct: natural collagen (acid soluble, bovine type I); purchased Sigma
T1 sequence (P02453 162-1217 limits assumed): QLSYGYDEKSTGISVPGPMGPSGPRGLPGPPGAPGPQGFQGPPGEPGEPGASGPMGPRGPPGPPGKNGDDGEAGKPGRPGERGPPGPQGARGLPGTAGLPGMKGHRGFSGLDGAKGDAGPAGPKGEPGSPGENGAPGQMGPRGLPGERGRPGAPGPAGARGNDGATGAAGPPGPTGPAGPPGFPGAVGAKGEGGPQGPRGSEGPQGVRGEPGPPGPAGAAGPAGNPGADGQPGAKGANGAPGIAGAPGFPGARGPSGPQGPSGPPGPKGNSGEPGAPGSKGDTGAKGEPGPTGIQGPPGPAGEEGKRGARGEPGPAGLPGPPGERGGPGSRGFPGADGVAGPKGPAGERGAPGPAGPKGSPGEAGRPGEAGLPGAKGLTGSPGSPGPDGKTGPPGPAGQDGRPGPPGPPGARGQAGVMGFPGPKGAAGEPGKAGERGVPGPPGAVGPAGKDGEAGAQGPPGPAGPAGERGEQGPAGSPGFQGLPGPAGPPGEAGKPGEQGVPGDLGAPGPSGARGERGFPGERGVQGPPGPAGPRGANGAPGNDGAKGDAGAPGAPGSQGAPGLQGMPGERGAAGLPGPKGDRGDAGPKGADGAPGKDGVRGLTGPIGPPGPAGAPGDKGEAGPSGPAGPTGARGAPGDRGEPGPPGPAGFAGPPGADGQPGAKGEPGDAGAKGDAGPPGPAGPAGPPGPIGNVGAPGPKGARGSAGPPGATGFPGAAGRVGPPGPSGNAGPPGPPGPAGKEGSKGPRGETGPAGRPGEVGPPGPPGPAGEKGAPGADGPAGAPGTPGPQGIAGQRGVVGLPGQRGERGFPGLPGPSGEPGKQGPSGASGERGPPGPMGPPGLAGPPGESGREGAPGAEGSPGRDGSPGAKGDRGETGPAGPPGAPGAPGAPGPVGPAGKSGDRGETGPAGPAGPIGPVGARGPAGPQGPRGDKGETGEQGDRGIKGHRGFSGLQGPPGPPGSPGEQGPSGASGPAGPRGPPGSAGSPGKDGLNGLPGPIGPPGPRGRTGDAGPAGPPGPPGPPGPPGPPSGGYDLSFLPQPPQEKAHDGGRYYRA
T1 sequence (P02465 80-1117 limits assumed): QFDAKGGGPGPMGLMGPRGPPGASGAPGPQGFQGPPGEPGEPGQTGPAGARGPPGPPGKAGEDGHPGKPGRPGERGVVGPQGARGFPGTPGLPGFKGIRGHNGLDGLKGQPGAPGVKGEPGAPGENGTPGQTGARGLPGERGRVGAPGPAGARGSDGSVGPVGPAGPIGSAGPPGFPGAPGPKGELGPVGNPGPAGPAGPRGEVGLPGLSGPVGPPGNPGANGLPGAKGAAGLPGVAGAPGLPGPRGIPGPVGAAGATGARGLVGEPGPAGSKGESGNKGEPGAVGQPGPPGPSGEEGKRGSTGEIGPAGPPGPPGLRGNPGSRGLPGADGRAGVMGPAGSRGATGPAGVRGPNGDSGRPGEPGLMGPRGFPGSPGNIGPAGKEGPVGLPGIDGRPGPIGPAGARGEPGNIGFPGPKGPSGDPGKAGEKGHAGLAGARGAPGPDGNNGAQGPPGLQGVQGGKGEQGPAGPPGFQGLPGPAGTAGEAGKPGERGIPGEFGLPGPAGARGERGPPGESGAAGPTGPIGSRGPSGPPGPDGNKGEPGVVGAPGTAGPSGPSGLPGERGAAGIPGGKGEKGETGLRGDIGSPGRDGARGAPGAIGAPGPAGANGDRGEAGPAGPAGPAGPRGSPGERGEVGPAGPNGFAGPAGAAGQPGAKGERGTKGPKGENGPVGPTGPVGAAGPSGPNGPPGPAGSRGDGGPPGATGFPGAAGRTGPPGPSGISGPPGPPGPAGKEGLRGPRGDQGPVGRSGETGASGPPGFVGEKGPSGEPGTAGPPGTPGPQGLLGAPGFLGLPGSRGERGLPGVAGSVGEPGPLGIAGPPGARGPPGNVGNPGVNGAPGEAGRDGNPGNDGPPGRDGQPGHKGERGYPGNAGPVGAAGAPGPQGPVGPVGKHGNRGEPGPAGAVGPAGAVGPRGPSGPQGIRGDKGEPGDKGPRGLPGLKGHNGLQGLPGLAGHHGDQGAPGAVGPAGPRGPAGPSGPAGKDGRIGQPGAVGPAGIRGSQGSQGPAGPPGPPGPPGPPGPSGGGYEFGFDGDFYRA
Description: The transition melting temperature of collagen film as determined by circular dichroism spectroscopy is shown at FIG. 4. To the collagen-coated cell culture wells (at room temperature) was added a solution of 2 which was pre-equilibrated at either 25° C. or 80° C. After three hours of incubation at room temperature, the collagen films were washed with buffer solution and observed by fluorescence microscope. As control samples, 5CF, fluorescein isothiocyanate-dextran (FITC-Dextran), and peptide 3 were used to treat collagen films under identical experimental conditions. […] Similar results were obtained when gelatin films were used as a substrate (FIG. 5A: Group c). In addition, the helical content of CMP treated collagen film was 3.5 times higher than that of the film treated with a blank solution (see support information).
In order to understand the effect of collagen film denaturation in the CMP binding process, a shorter CMP derivative was synthesized, peptide 4, with a melting temperature (25° C.) well below that of the collagen film. […] In addition, the modified collagen fiber retained its native banding texture when investigated by transmission electron microscopy (FIG. 6). Hotter solutions (60° C. and 80° C.) which denature the collagen film during the treatment produced collagen films with slightly higher CMP content (approximately 20% increase from that of the […] solution).
To each well of a 96-well culture plate was added 200 μl of saturated collagen (acid soluble, type I bovine) solution in 0.5 M acetic acid. The culture plate was air-dried to form transparent collagen films. The films were neutralized with 0.01 M potassium phosphate buffer (pH 7.4), and washed with distilled water. To the collagen-coated wells were added 40 μl of 0.01 M potassium phosphate solutions (pH 7.4) containing 50 μM of either CF (5-carboxyfluorescein), FITC-Dextran, and peptides 2, 3, or 4, which were pre-equilibrated at 25° C. or 80° C. After 3 hours of incubation at room temperature, the wells were washed with 0.01 M potassium phosphate buffer solution (pH 7.4) and observed by fluorescence microscope (Eclips ME 600, Nikon Corp). The total fluorescence intensity was acquired from the fluorescence micrographs using Meta Imaging Series V4.5, (Universal Imaging Corporation, Dowingtown Pa.). Average values of four independent experiments are reported.

[2] = Circular dichroism thermal melting (triple helix transition temperature); assay type: physicochemical; settings: for Tm (transition temperature determined by circular dichroism spectroscopy): measured in 57.5 μM acetic acid solution
Description: Circular dichroism (CD) spectra were recorded on JASCO 710 spectrometer equipped with JASCO PTC-348 WI temperature controller and Hellma cell (400 μL, 0.1 mm pathlength). The thermal melting curves were obtained by measuring the molar ellipticity at 225 nm with 1° C./min heating rate. All samples (57 μM in 50 mM acetic acid) were stored at 4° C. for 24 hours before the CD measurement.
The thermal melting curves were obtained by measuring the ellipticity of peptide in deionized (DI) water (0.5˜2 mM) at 225 nm with 0.1° C./min heating rate. All samples were stored at 4° C. for 24 hours before the measurement. (FIG. 15)
Triple-helical conformation of the CMP was confirmed by circular dichroism (CD) spectroscopy. Peptide samples (250 or 500 μM) were prepared in distilled water and incubated at 4° C. overnight before the CD measurement. CD was recorded between 180 and 280 nm on a JASCO'710 CD spectrometer at various temperatures under a nitrogen flow. Each measurement had static equilibrium time of 30 minutes.

[3] = molecular target: T2, collagen fibers (type I) (Bos taurus, UniProt P02453+P02465); experiment: TEM analysis of the modified collagen fibers; set-up: species or system bovine; settings: treatment at 30° C.
T2 construct: natural collagen (acid soluble, bovine type I); purchased Sigma
T2 sequence (P02453 162-1217 limits assumed): as the sequence (P02453 162-1217 limits assumed) above
T2 sequence (P02465 80-1117 limits assumed): as the sequence (P02465 80-1117 limits assumed) above
Description: Collagen fibers were prepared by dialysis of collagen in 0.01M acetic acid solution against dilute NaCl solution. Peptide 4 in potassium phosphate buffer (400 μl, 500 μM, pH 7.4) was added to the collagen fibers in the PBS buffer (1 ml, 1 mg/ml, pH 7.4). The mixture was incubated for 3 hours and excess peptide 4 was removed by repeated centrifugation. The collagen fibers were resuspended in deionized water and transferred to a TEM grid. Uranyl acetate was used to stain the collagen fiber. (FIG. 6)

[4] = molecular target: T3, Collagen (type I, bovine) film (Bos taurus, UniProt P02453+P02465); experiment: Helical content estimation of the modified collagen films by CD
T3 construct: natural collagen (acid soluble, bovine type I); purchased Sigma
T3 sequence (P02453 162-1217 limits assumed): as the sequence (P02453 162-1217 limits assumed) above
T3 sequence (P02465 80-1117 limits assumed): as the sequence (P02465 80-1117 limits assumed) above
Description: Collagen (type I, bovine) film was treated with either peptide 2 solution or blank buffer solution as described before. After 3 hr of incubation at room temperature, the wells were washed with 0.01 M potassium phosphate buffer solution (pH 7.4) and deionized water. All samples were dissolved in 50 mM acetic acid to a concentration of 1.80 μM or 3.60 μM and stored at 4° C. for 24 hours before the CD measurement. Average values of four independent experiments are reported (FIG. 4).

[5] = comparison value; cited from earlier work
[6] = system: breast epithelial cells (MCF-7); experiment: Cell adhesion study on treated collagen film, breast epithelial cells; assay type: cell-based, human; settings: for invasion of treated films by fibroblasts or epithelial cells: summary statement
Description: (§1) The melting temperature of 5 was determined to be 29° C. which is 7° C. lower than the melting temperature of (ProHypGly)7 (SEQ ID NO: 40) (Table 1).^27 Here, the hydrophilic and bulky PEG group seems to destabilize the triple helix in water. A solution containing 5 at 45° C. was added to the collagen coated culture plate (prepared as above) and human fibroblasts or breast epithelial cells were seeded and incubated for three days at 37° C. […] In contrast, areas of collagen films treated with 5 are almost devoid of fibroblasts (FIG. 7B) and epithelial cells (FIG. 7C).
For applications where it is desirable to repel cell growth for prolonged periods (e.g., weeks or months), it is desirable to employ CMPs of increased length. In films that were treated with mPEG2000-Gly3-(Pro-Hyp-Gly)7 (SEQ ID NO: 6), cell growth extending into the treated area was observed after 3 days in culture (FIGS. 9A, 9B, and 9C). This might be due to the release of mPEG2000-Gly3-(Pro-Hyp-Gly)7 (SEQ ID NO: 6) from the PEG-CMP modified collagen film during incubation at 37° C.
(Pro-Hyp-Gly)8-Gly3-PEG5000-OH (SEQ ID NO: 26) with lengthened CMP and PEG, was designed to prolong the anti-adhesive property of pegylated CMP modified collagen to cells. Its melting temperature is 38° C. in PBS solution. A delay in invasive cell growth was observed on areas of the collagen film treated with (Pro-Hyp-Gly)8-Gly3-PEG5000-OH (SEQ ID NO: 26) (FIGS. 10A and FIG. 10B). […] It can also be seen from the images that cells outside the treated area grow vertically before invading the treated area.
(§2) To the collagen film (prepared as above) was added 10 μl of peptide 5 solution (2 mM in pH 7.4 potassium phosphate buffer). The film was allowed to dry and excess materials were removed by washing with potassium phosphate buffer (pH 7.4, 50 mM) and culture medium (DMEM or IMDM). Cells were added to the culture well and incubated at room temperature for 30 minutes. Human fibroblasts (CRL-1502) were seeded at 4.5×10^5 cell/ml cell density in DMEM and breast epithelial cells (MCF-7) at 5.6×10^5 cells/ml density in cell culture media (IMDM). The nonattached cells were removed by rinsing the well three times with growth medium and PBS buffer. The remaining cells were incubated at 37° C. (5% CO2) for three days. The growth medium was exchanged after 48 hours.

[7] = Circular dichroism thermal melting (triple helix transition temperature); assay type: physicochemical; settings: in PBS solution
[8] = system: Human fibroblasts (CRL-1502); experiment: Cell adhesion study on treated collagen film, human fibroblasts; assay type: cell-based; settings: three days at 37° C.
Description: as §1, §2

[9] = molecular target: T4, collagen film (Bos taurus, UniProt P02453+P02465); experiment: Release of fluorescence-labeled CMP derivatives from collagen films; settings: 37° C., PBS solution pH 7.4
T4 construct: natural collagen (acid soluble, bovine type I); purchased Sigma
T4 sequence (P02453 162-1217 limits assumed): as the sequence (P02453 162-1217 limits assumed) above
T4 sequence (P02465 80-1117 limits assumed): as the sequence (P02465 80-1117 limits assumed) above
Description: The release of fluorescence-labeled PEG-CMPs derivatives from collagen films is shown in (FIG. 11).

[10] = solution pre-equilibrated at 80° C.

5CF-Gly3-(ProHypGly)6- [Compound 4]
increase in CMP content of collagen film from that of the 30° C. solution ([1]; hotter solutions (60° C. and 80° C.)): approximately 20%
binding to collagen film ([1]; solution at 10° C.): Little binding
increase in CMP attachment compared to the 10° C. solution ([1]; solution pre-equilibrated at 30° C.): more than three-fold increase
Tm (transition temperature determined by circular dichroism spectroscopy) [2]: 25 °C
Tm (transition temperature determined by circular dichroism spectroscopy) ([2]; listed as peptide 4): 25 °C
banding pattern of collagen fibers after treatment [3]: native banding pattern

5CF-Gly3-(ProHypGly)10- [Compound 2]
fluorescence of treated collagen film ([1]; solution pre-equilibrated at 25° C.): negligible fluorescence
fluorescence of treated collagen film [1, 10]: strong fluorescence
helical content of treated collagen film relative to film treated with blank solution [4]: 3.5 times
original helical content of collagen film retained after treatment [4, 10]: 80%
Tm (CD melting transition temperature) ([2]; Cys-CMP derivatives, deionized water, ellipticity at 225 nm): 21 °C
Tm (transition temperature determined by circular dichroism spectroscopy) [2]: 75 °C
Tm (transition temperature determined by circular dichroism spectroscopy) ([2]; listed as peptide 2): 75 °C

O=C(O)c1ccc2c(c1)C(=O)OC21c2ccc(O)cc2Oc2cc(O)ccc21 [Compound 5CF, 5-carboxyfluorescein, reference compound]
affinity toward collagen film (fluorescence intensity) [1]: negligible affinity

(Pro-Hyp-Gly)7
melting temperature of unmodified (Pro-Hyp-Gly)7 CMP [5]: 37 °C

(Pro-Hyp-Gly)8-Gly3-PEG5000-OH
time for which the treated gel repelled extensive cell growth [6]: close to eleven days
cell invasion into treated areas of the collagen film ([6]; after eleven days in culture): Extensive invasion
cell invasion into treated areas of the collagen film ([6]; after five days in culture): little invasion
cell invasion into treated areas of the collagen film ([6]; after nine days in culture): moderate invasion
invasion of treated films by fibroblasts or epithelial cells [6]: dramatically reduced invasion
melting temperature [7]: 38 °C

(ProHypGly)7-Tyr
CD melting temperature (midpoint of CD melting curve) ([2]; peptide in distilled water): 38.5 °C

-(ProHypGly)10- [Compound 1]
Tm (transition temperature determined by circular dichroism spectroscopy) [2]: 69 °C

CH3O—(CH2—CH2—O)n—OH [mPEG2000, reference compound]
fibroblasts on treated area of collagen film [8]: Homogenous distribution of fibroblasts

FL-PEG2000-Gly3-(Pro-Hyp-Gly)7
release from collagen film relative to 5CF-Gly3-(Pro-Hyp-Gly)8-Gly3-PEG5000-OH [9]: faster

fluorescein isothiocyanate-dextran [FITC-Dextran, reference compound]
affinity toward collagen film (fluorescence intensity) [1]: negligible affinity

mPEG2000-Gly3-(ProHypGly)7- [Compound 5]
fibroblasts on treated area of collagen film [8]: almost devoid
melting temperature lower than that of (ProHypGly)7 ([2]; difference): 7 °C
Tm (transition temperature determined by circular dichroism spectroscopy) [2]: 29 °C
cell growth extending into the treated area observed after ([6]; in culture at 37° C.): 3 days
invasion of treated films by fibroblasts or epithelial cells [6]: dramatically reduced invasion
epithelial cells on treated area of collagen film ([6]; three days at 37° C.): almost devoid
